Measurements: US20170143653A1, “USE OF SULINDAC FOR PROTECTING RETINAL PIGMENT EPITHELIAL CELLS AGAINST OXIDATIVE STRESS” (CHS PHARMA, INC., priority 2011, published 2017)
“Also recorded” adds a separate entry of the source.

What was measured:
Type in all cases: cell-based
RPE cells [1] = assay: Reversal of sulindac protection of RPE cells against UV damage by PKC/PKG inhibitors; settings: for reversal of the protective effect of sulindac against UV damage: 1200 mj UVB, rottlerin at 3 uM
Method: (§1) The ability of sulindac to protect RPE cells against oxidative stress was determined by analyzing cellular viability following treatment of cultured ARPE19 cells with sulindac, before exposing the cells to conditions leading to oxidative damage. Following 24 hr treatment of the cells with sulindac, ARPE19 cells were exposed to either a range of tert-Butyl Hydrogen peroxide (t-BHP) concentrations for 24 hrs or a range of intensities of ultraviolet B (UVB) to induce oxidative stress. To test the involvement of PKC, the non-specific PKC blocker chelerythrine and also specific blockers for individual isoforms of PKC were used. The possible role of PKG was investigated by the addition of PKG inhibitor Rp-8-Br-PET-CGMPs along with sulindac. Western blotting was used to detect induction of late phase markers of preconditioning.
The sulindac protective effect on RPE cells is due to ischemic preconditioning. The IPC response in tissues is often initiated by ROS and/or NO which activates mitochondrial PKC epsilon as part of a complex mechanism that also involves the opening of the mitochondrial ATP sensitive K+ channel and preventing the formation of the mitochondrial permeability transition pore. We have looked more closely at the possible role of PKC in the protection of RPE cells by sulindac, as was shown previously in cardiac studies. […] Based on previous preconditioning studies it seemed reasonable to look specifically at PKC epsilon. […] In the previous cardiac study it was also shown that two late stage preconditioning markers, iNOS and Hsp27 were induced by sulindac.
The role of PKG in the sulindac protective effect was examined. The above results support previous studies that agents that can initiate an ischemic preconditioning response may have therapeutic value in delaying the onset, or slowing the progression, of retinal diseases arising from ischemia and oxidative damage. […] Both sulindac and sildenafil are known to be inhibitors of PDE5, which results in increasing the level of cGMP and activation of PKG. […]

RPE cells [2] = assay: Protection of RPE cells against UVB radiation damage, cell viability
Method: as §1
It seemed reasonable to investigate whether sulindac could also protect other cells, such as RPE cells, which are susceptible to oxidative damage and known to have a strong ischemic preconditioning (IPC) response. Two types of oxidative stress were used in these experiments, either exposure of the RPE cells to an oxidizing agent such as TBHP, or exposure to UV light. In these experiments the RPE cells were pretreated for 24 hours with varying concentrations of sulindac, sulindac sulfone or sildenafil as described in the Figures. […] To determine whether this protective effect was due to the NSAID activity of sulindac, sulindac sulfone, a metabolite, of sulindac that has no NSAID activity was tested in place of sulindac for its UV protective effect. […] It should also be noted that sulindac sulfone is not a substrate for the Msr system which eliminates the possibility that the sulindac protective effect was related to its being a substrate for the Msr enzymes and functioning as a catalytic anti-oxidant in an ROS scavenging system.

ARPE-19 cells [3] = assay: Protection of ARPE-19 cells against H2O2 induced oxidative stress, cell viability; settings: incubated 24 hrs, then 50 μM H2O2
Method: (§2) For protecting RPE cells from oxidative stress induced damage we used the NSAID, sulindac. For our experiment we used ARPE-19 cells cultured in 96 well plates. The cells were preincubated with sulindac for 48 hours prior to exposing them to oxidative stress. Our oxidizing agents of choice were TBHP and Hydrogen peroxide (H2O2). We also stressed the ARPE-19 cells with 24 hours of Hypoxia treatment. After the stress the cellular viability was evaluated using the MTS assay. This assay uses a tetrazolium compound that is bioreduced into a formazan product in the cells. The signal generated (color intensity) is directly proportional to the number of viable (metabolically active) cells in the wells.
The next experiment was designed to determine if preincubation with sulindac is also effective in protecting ARPE-19 cells against oxidative stress induced by treatment of retina cells with H2O2. Cells were incubated with sulindac for 24 hrs and then exposed to 50 μM H2O2.

ARPE-19 cells [4] = assay: Protection of ARPE-19 cells against 24 hr hypoxic stress, cell viability; settings: 24 hours preincubation, 24 hr hypoxia
Method: as §2
To test the ability of sulindac; in protecting against a variety of stresses ARPE-19 cells were exposed to 24 hours of hypoxic stress following sulindac preincubation. The ARPE-19 cells were grown in 96 well plates inside a hypoxia chamber having only 5% oxygen for 24 hours to induce hypoxic stress. Prior to exposing the cells to hypoxia, one set of cells was incubated 24 hours with sulindac.

ARPE-19 cells [5] = assay: Protection of ARPE-19 cells against TBHP oxidative stress, cell viability (MTS)
Method: as §2
(§3) ARPE-19 cells were preincubated with different concentrations of sulindac ranging from 50 uM to 400 μM.
as §1
It seemed reasonable to investigate whether sulindac could also protect other cells, such as RPE cells, which are susceptible to oxidative damage and known to have a strong ischemic preconditioning (IPC) response. Two types of oxidative stress were used in these experiments, either exposure of the RPE cells to an oxidizing agent such as TBHP, or exposure to UV light. […]

ARPE-19 cells [6] = settings: human, 48 h
Method: as §2, §3

iNOS = assay: Western blot of late phase preconditioning marker iNOS in RPE cells; settings: RPE cells pretreated 48 hours
Method: as §1
(§4) The sulindac protective effect on RPE cells is due to ischemic preconditioning. The IPC response in tissues is often initiated by ROS and/or NO which activates mitochondrial PKC epsilon as part of a complex mechanism that also involves the opening of the mitochondrial ATP sensitive K+ channel and preventing the formation of the mitochondrial permeability transition pore. We have looked more closely at the possible role of PKC in the protection of RPE cells by sulindac, as was shown previously in cardiac studies. […]

Hsp27 = assay: Western blot of late phase preconditioning marker Hsp27 in RPE cells; settings: RPE cells pretreated 48 hours
Method: as §1, §4

O=c1c2nc(Br)n([C@@H]3O[C@@H]4CO[P@@](O)(=S)O[C@H]4[C@H]3O)c2nc2[nH]c(-c3ccccc3)cn12 [Rp-8-Br-PET-CGMPs]
inhibition of the sulindac protective effect on RPE cells exposed to UV damage (RPE cells [1]; 250 nM, 24 hours with sulindac): > 50%

COc1ccc2c(c[n+](C)c3c4cc5c(cc4ccc23)OCO5)c1OC [chelerythrin]
reversal of the protective effect of sulindac against UV damage (RPE cells [1]): significantly reversed

CC(=O)c1c(O)c(C)c(O)c(Cc2c(O)c3c(c(C(=O)/C=C/c4ccccc4)c2O)OC(C)(C)C=C3)c1O [rottlerin]
reversal of the protective effect of sulindac against UV damage (RPE cells [1]): no reversal

CCCc1nn(C)c2c(=O)[nH]c(-c3cc(S(=O)(=O)N4CCN(C)CC4)ccc3OCC)nc12 [sildenafil]
protection against UV damage (RPE cells [2]; 20 uM, 1200 mj UVB): can also protect RPE cells against UV damage similar to sulindac

CC1=C(CC(=O)O)c2cc(F)ccc2/C1=C\c1ccc(S(C)(=O)=O)cc1 [sulindac sulfone]
protection against H2O2 induced oxidative stress (ARPE-19 cells [3]): only partial protection
protection against hypoxia induced stress (cell viability) (ARPE-19 cells [4]): partial protection
protection against UV damage (RPE cells [2]; 200 uM, 24 hours pretreatment): complete protection

CC1=C(CC(=O)O)c2cc(F)ccc2/C1=C\c1ccc([S+](C)[O-])cc1 (centres unmarked) [sulindac]
protection against t-BHP insult, survival (ARPE-19 cells [5]; 24 hrs pretreatment, t-BHP 24 hrs): protected them against both types of insult and enhanced survival
protection against loss of cell viability due to oxidative stress by TBHP (ARPE-19 cells [5]; ARPE-19 cells preincubated with 50 uM to 400 μM sulindac, 48 hours, MTS assay): protected the ARPE-19 cells against loss of cell viability
protection against TBHP damage (cell viability) (ARPE-19 cells [5]; sulindac 125 and 200 uM, 24 hours pretreatment, varying TBHP): essentially complete protections
protection against H2O2 induced oxidative stress (ARPE-19 cells [3]): capable of protecting retina cells against H2O2 induced oxidative stress
protection against hypoxia induced stress (cell viability) (ARPE-19 cells [4]): significant protection; also recorded: higher viability
protection against UV exposure (RPE cells [2]; 500 uM, 24 hours pretreatment, 1200 mj UV): 50%
protection against UVB insult, survival (RPE cells [2]; 24 hrs pretreatment, range of UVB intensities): protected them against both types of insult and enhanced survival
sulindac concentration toxic to ARPE-19 cells (acute reduction of cell viability) (ARPE-19 cells [6]): ≥ 200 μM
induction of iNOS (iNOS): significant induction
induction of Hsp27 (Hsp27): significant induction
